According to US8318899B2, “Lytic domain fusion constructs and methods of making and using same” (Board of Supervisors of Louisiana State University and …, priority 2008, dated 2012):
Entries after “also recorded” stand apart in the source; their conditions may differ.

Tests used:
[1] = system: NIH:OVCAR-3 xenograft; assay: OVCAR-3 ovarian cancer xenograft; assay type: in vivo; settings: for tumor volume during treatment: Phor18-LHRH 0.02-2 mg/kg, CLIP71 2 mg/kg, cisplatinum 10 mg/kg; for tumor weights at necropsy: mouse, in vivo
Protocol: The xenograft model of the OVCAR-3 human ovarian cancer cell line that present functional LHRH receptors was used in this study. OVCAR-3 represents a slow growing xenograft model and secretes the tumor marker (cancer antigen 125, or […]). It's secretion can be used as treatment response and is a measure of drug activity.
In brief, Nu/Nu female mice, inbred strain, age 5 weeks (Harlan-Sprague Dawley) were injected subcutaneously with a NIH:OVCAR-3 cells/Matrigel suspension (4.6×10^6 cells/mouse). Treatment was started on day 33 after tumor cell injection when the tumors were established and continued on days 41 and 47. The doses for the 3 weekly injections were 0.02, 0.2 and 2 mg/kg body weight, given as a single bolus intravenous injection via lateral tail vein administered once a week for three weeks on days 33, 41 and 47. Necropsies were conducted on day 52. Data are presented as mean SEM. Arrows show dosing.
A group of 9 tumor bearing mice was sacrificed on day 33 and served as baseline group. All mice were necropsied 51-52 days after tumor cell injection. Tumor volumes and bodyweights were recorded twice weekly during the study, as well as overall veterinarian examination of mice was conducted.
(§1) Primary tumors, liver, kidney, pancreas, heart, lung, and spleen were collected, fixed in formalin and prepared for histological evaluation. Tumor weights were measured at necropsy, part of the tumors were frozen at −80° C. for LH/CG and LHRH receptor assay determination.
As a biomarker for drug activity, CA125 was determined in serum, collected from each individual mouse at necropsy using a Enzyme Linked Immunoassay for quantitative determination of ovarian cancer antigen CA125 (Assay kit Genway, Biotech, Inc. San Diego, Calif., Catalog #40-052-115009, # BC-1013 according to the manufacturer).
LHRH receptor levels were assessed from formalin fixed tumors. Quantitative immunoperoxidase image analysis was conducted with the Ventana Image Analysis System (VIAS) adjunctive computer assisted image analysis system functionally connected to an interactive microscope (Axio Imager). The quantitative analysis was conducted with the program for quantification of Her2/neu receptor that included morphometric and colorimetric analysis. Receptor status results were reported as percentage of cells showing positive staining of the LHRH receptors under the following criteria: 0 non-immunoreactive, 1+: 1-25% positive, 2+: 26-50% positive, 3+: 51-75% positive cells.

[2] = system: OVCAR-3; assay: IC50 in OVCAR-3 ovarian cancer cell line; assay type: cell-based, human
Protocol: MDA-MB435S.luc cells were grown in Leibovitz's L 15 medium, 10% fetal bovine serum, 0.01 mg/ml bovine insulin, 100 IU/ml penicillin, 100 microg/ml streptomycin. The cells were cultured in tight closed flasks. The incubations were conducted using 96 well plates at 10,000 cells per well. Cells were typically seeded into 96 well plates and media was replaced after 48 hours of incubation. Each assay was conducted at increasing concentrations of 0, 0.001, 0.01, 0.05, 0.1, 0.5, 1, 2, 5, 10 and 100 micromolar doses of lytic peptide-binding domain conjugate. Each lytic peptide-binding domain conjugate provided in lyophilized form and was freshly dissolved in saline and added to cells. The duration of incubation was typically 24 h, and cell viability assays were conducted using formazan conversion assays (MTT assay). Controls contained saline or 0.1% triton as reference for 0 and 100% cell death, respectively.
To ascertain the IC50 of various fusion constructs on different human cancer cell lines compared to cisplatinum, IC50 of fusion constructs were evaluated as in Table 3.

[3] = system: NIH:3T3; assay type: cell-based, mouse; settings: non cancerous cell line 3T3
Protocol: (§2) The breast cancer cell lines studied were MDA-MB435S (estrogen receptor alpha negative), MCF-7 and T47D (estrogen receptor alpha positive), ovarian cancer cell lines (OVCAR-3 and SKOV-3), prostate cancer (LNCaP), the non-malignant breast epithelial cell line MCF-10A and the mouse fibroblast cell line NIH:3T3.
(§3) Cells were seeded into 96 well plates at a density of 10,000 cells/well. […] Controls contained USP saline or 0.1% TritonX-100™ as reference for 0 and 100% cell death, respectively. Incubations were terminated by removing the culture media after 2 minutes, 5 minutes, 15 minutes, 30 minutes, 1 hour, 2 hours, 6 hours, 24 and 48 hours. Cell viability was assessed through formazan conversion assay (MTT assay, (CellTiter 96 Aqueous One, Promega # G3582). Formazan conversion was determined using a BioRad Benchmark Plus microplate spectrophotometer dual wavelengths at 490/630 nm at room temperature).
(§4) Data were calculated as fraction of absorption in TritonX-100™ containing wells representing 100% cell death versus 0% cell death in saline containing wells. Cytotoxicity was determined as IC50 using GraphPad Prism version 5.01 for Windows, GraphPad Software, San Diego Calif. […] 4 wells of each individual set of two 96 well plates were compared and analyzed. Statistical analysis for significance was determined by a two-tailed Student's T-test.

[4] = system: MDA-MB-435 cells; assay: Fluorescence microscopy, MDA-MB-435 breast cancer cells; assay type: cell-based, human; settings: 10 μM, 5 minutes exposure
Protocol: In brief, human breast cancer cells (MDA-MB435, passage #252) were seeded onto culture dishes. The following markers were introduced prior to adding EP100: DRAQ5™ (Alexis Corporation)—blue—was used for staining of the nucleus and MitoTracker® Red CMXRos (M7512) (Molecular Probes, Inc. OR) were applied for visualizing intact mitochondria. Cell membranes were stained with wheat germ alexa fluor green conjugates (Molecular Probes, Inc. OR).
Cells were loaded first with Mitotracker dye, according to the manufacturers recommendation. […] Culture dishes with saline only served as controls. The supernatant was removed and the remaining cells prepared for fluorescence microscopy imaging.

[5] = system: MDA-MB-435S xenograft; assay: MDA-MB-435S xenograft, once weekly for 3 weeks (minimal effective dose); assay type: in vivo, Nu/Nu mice; settings: H&E
Protocol: (§5) In vivo efficacy studies were conducted as monotherapy, or a combination therapy with standard of care treatments in nude mice bearing human breast cancer xenografts: MDA-MB435S.luc (s.c.), MCF-7 (estrogen receptor alpha positive), human ovarian cancer xenografts: OVCAR-3, (s.c.), human prostate cancer xenografts: PC-3 (androgen receptor negative).
(§6) Mice were sacrificed one week after the last injection and blood collected for chemistry panel, tumor weights and body weights were recorded. Part of the tumors were fixed in PBS buffered 10% formalin for histological evaluation.
To determine the minimal effective dose necessary to reduce MDA-MB-435S xenograft weights in a single dose regimen, Nu/Nu female mice, outbred strain, age 5 weeks (Charles River), were injected (s.c.) into the interscapular region with a MDA-MB435S (passage #249)/Matrigel suspension (2.4×10^6 cells/mouse) [Leuschner 2006].
Each group consisted of 16 mice, which were injected once a week for 3 weeks. […] During the entire study tumor volumes were recorded twice weekly. […]
Treatment response was determined by tumor weights and tumor weight change at necropsy compared to saline controls and untargeted CLIP71 treatment. […] Statistical evaluation of data sets were conducted in GraphPad Prizm 4 and significance calculated by Wilcoxon signed-rank test.

[6] = system: OVCAR-3 cells; assay type: cell-based, human; settings: OVCAR-3 p47, series with increasing incubation time (times not given per value)
Excerpt: Membranes of non-cancerous cell lines are neutral and are resistant to cytolytic peptides, in contrast to cancer cell lines, which have a high phosphatidic acid content in their outer membrane.
as §2
as §3, with “Incubations were terminated by removing the culture media after 2 minutes, 5 minutes, 15 minutes, 30 minutes, 1 hour, 2 hours, 6 hours, 24 and 48 hours.” left out
as §4

[7] = system: MDA-MB-435S xenograft; assay: MDA-MB-435S xenograft, kinetics after a single injection; assay type: in vivo, Nu/Nu mice; settings: single i.v. injection 0.2 and 2 mg/kg
Protocol: In brief, Nu/Nu female mice, outbred strain, age 5 weeks (Charles River), were injected (s.c.) into the interscapular region with a MDA-MB-435 S (passage #249)/Matrigel suspension (2.4×10^6 cells/mouse) as described in Example 10. […] The doses were given as a single bolus intravenous injection via lateral tail vein.
Mice were sacrificed 1, 2 and 16 hours after treatment with Phor 18-LHRH (338613) or saline. At study endpoint body weight, tumor weights were determined and tumors were fixed in phosphate buffered 10% formalin.

[8] = system: PC-3 xenograft; assay: PC-3 prostate cancer xenograft; assay type: in vivo, Nu/Nu mice
Protocol: PC-3 xenografts untreated cause significant weight loss in mice.
In brief, Nu/Nu male mice, outbred strain, age 6 weeks (Charles River) were injected subcutaneously with a PC-3 cells/Matrigel suspension (1×10^6 cells/mouse). Treatment was started on day 15 after tumor cell injection when the tumors were established and continued on days 22 and 29. […]
A group of 12 tumor bearing mice was sacrificed on day 15 and served as baseline group. All mice were necropsied 35 and 36 days after tumor cell injection. Tumor volumes and bodyweights were recorded twice weekly during the study, as well as overall veterinarian examination of mice was conducted.
as §1

[9] = system: MCF-7 xenograft; assay: MCF-7 breast cancer xenograft; assay type: in vivo, nude mice; settings: 2 × 3 wk, 19 d, growth delay
Protocol: as §5
PHOR 18-LHRH (338613) Combination therapies were conducted in a MCF-7 breast cancer xenograft models.
as §6

[10] = system: MDA-MB-435S.luc xenograft; assay: MDA-MB-435S.luc xenograft, LHRH fusion constructs; assay type: in vivo, Nu/Nu mice
Protocol: For LHRH fusion constructs, the mouse xenograft model for breast cancer was used. In brief, Nu/Nu female mice, outbred strain, age 5 weeks (Charles River) were injected subcutaneously with a MDA-MB-435S.luc/Matrigel suspension (1×10^6 cells). Treatment was started on day 21 after tumor cell injection and continued on day 26 and 29. The doses for weekly fusion construct injections were 2, 0.2 and 0.02 mg/kg body weight, given as a bolus single injection. All mice were necropsied 34 days after tumor cell injection-baseline values for tumor weights were obtained by sacrificing 8 mice at treatment start. […] Tumor weights were recorded at necropsy, part of the tumors were frozen at −80° C. for luciferase assay determination.
Characteristics of tumors at necropsy are summarized in FIG. 10: (A) tumor weight, (B) changes of tumor weights compared to baseline, (C) total number of live tumor cells, (D) changes of total live tumor cells compared to baseline, and (E) body weights at baseline and necropsy. Viability of tumor cells was determined at the end of the study when tumors were measured for luciferase activity. Treatment efficacy was calculated as difference between measurements at the beginning of treatment compared to the measurement at the end of study (FIGS. 10B and 10D).

[11] = system: MDA-MB435S xenograft; assay: MDA-MB435S xenograft, multiple dose regimen; assay type: in vivo, Nu/Nu mice; settings: 0.002 and 0.2 mg/kg, multiple i.v. injections
Protocol: In order to determine the minimal effective dose necessary to reduce MDA-MB435S xenograft weights in a multiple dose regimen, Nu/Nu female mice, outbred strain, age 8 weeks (Charles River), were injected (s.c.) into the interscapular region with a MDA-MB435S (passage #253)/Matrigel suspension (2×10^6 cells/mouse) as previously described above. […] The doses were given as a single bolus intravenous injection via lateral tail vein on days 15, 16, 17, 20, 21, 22, 23, 27, 28, 29, 30, 33, 34, 35, 36, 37, 38, 40, 41, 42 after tumor cell inoculation. Saline injections served as control groups.
Each treatment group consisted of 16 mice. During the entire study tumor volumes were recorded twice weekly. Final necropsy was conducted on day 45 after tumor cell injection. […] due to occlusion of the tail vein in most mice. At study endpoint body weight, tumor weights were determined and fixed in phosphate buffered 10% formalin.

[12] = system: MDA-MB-435S.luc cells; assay: Cell toxicity (MTT) screening in MDA-MB-435S.luc breast cancer cells; assay type: cell-based, human; settings: relative to Phor21-βCG-ala (IC50 2.31 μM)
Excerpt: The human breast cancer cell line MDA-MB-435S.luc, which over expresses chorionic gonadotrophin (CG) and luteinizing hormone-releasing hormone (LHRH) receptors, was used to screen at passage numbers 248-252. The MDA-MB-435S.luc cell line was constructed from the MDA-MB-435S cell line obtained from the American Type Cell Culture Collection by stable transfection with the plasmid PRC/CMV-luc containing the Photinus pyralis luciferase gene and an […] by lipofection. The stably transfected cell line was selected using G418 and the clones with the highest expression for the luciferase gene were tested for their LH and LHRH receptor expression.
MDA-MB435S.luc cells were grown in Leibovitz's L 15 medium, 10% fetal bovine serum, 0.01 mg/ml bovine insulin, 100 IU/ml penicillin, 100 microg/ml streptomycin. The cells were cultured in tight closed flasks. The incubations were conducted using 96 well plates at 10,000 cells per well. Cells were typically seeded into 96 well plates and media was replaced after 48 hours of incubation. Each assay was conducted at increasing concentrations of 0, 0.001, 0.01, 0.05, 0.1, 0.5, 1, 2, 5, 10 and 100 micromolar doses of lytic peptide-binding domain conjugate. […]
Data were processed and analyzed using Graph Pad Prizm 4™ software (Graph Pad Prizm, Inc). Statistical analysis for significance was determined by a two-tailed Student's T-test. […]

| Molecule | tumor volume during treatment [1] | tumor volume during treatment ([1]; listed as cisplatinum) | tumor weights at necropsy [1] | IC50 [2] [µM] | IC50 [3] [µM] | effect on plasma membrane (fluorescence microscopy) [4] | dose with significant necrosis in tumors (histology) [5] [mg/kg] | dose with significant necrosis in tumor sections ([1]; H&E) [mg/kg] | Median Tumor Weight vs Baseline p < 0.05 (dose) ([1]; OVCAR-3 xenograft, 1 × 3 wk, 20 d) [mg/kg] | serum CA125 ([1]; greatest at 0.2 and 2 mg/kg (p<0.0002 vs saline)) | IC50 [6] [µM] | time after injection to destruction of tumors (histology) [7] [hour] | Median Tumor Weight vs Baseline p < 0.05 (dose) ([8]; PC-3 xenograft, 1 × 3 wk, 21 d) [mg/kg] | tumor volume during treatment ([8]; Phor18-LHRH 0.002-2 mg/kg, CLIP71 5 mg/kg) | Median Tumor Weight vs Saline P < 0.05 (dose) [9] [mg/kg growth] | tumor volume during treatment / 30 days ([10]; 0.02, 0.2, 2 mg/kg weekly) | overall efficacy in reducing tumor weight and live tumor cells (vs other constructs / reference Phor21-βCG-ala) ([10]; mouse, in vivo) | tumor response [11] | Increased in vitro activity fold (IC50 of 33/IC50 peptide) [12] [fold] |
| --- | --- | --- | --- | --- | --- | --- | --- | --- | --- | --- | --- | --- | --- | --- | --- | --- | --- | --- | --- |
| N.N.[Cl][Pt][Cl] [Cisplatinum, reference compound] | no reduction in tumor volume | tumor growth was observed | not effective in reducing tumor weights |  |  |  |  |  |  |  |  |  |  |  |  |  |  |  |  |
| KFAKFAKKFAKFAKKFAKQHWSYGLRPG [Phor18-LHRH] | Tumor volumes decreased during treatment |  | Tumor free mice were found | 3 ± 0.5 | > 10 | disintegration of the plasma membrane | 0.0002 | 0.02 | 0.2 | CA125 secretion was reduced | 0.5 | 1 | 0.2 | Tumor volumes decreased during treatment | 0.02 | smallest tumor volumes | Equally effective | tumor regression at both dose levels; also recorded: eradication of tumor cells | 2.65 |
